The values that follow come from patent US20130331405A1, “PIK3CA Mutation Status and SASH1 Expression Predicts Synergy Between Lapatinib and an AKT Inhibitor in HER2 Positive Breast Cancer” (THE REGENTS OF THE UNIVERSITY OF CALIFORNIA, priority 2012, published 2013).

Assay [1] relates to HCC202. Description: Growth inhibition (CTG assay), HCC202. It counts as cell-based. The note with it: Homo sapiens, PIK3CA p.E545K, average GI50, CTG assay. The protocol: (§1) We used a panel of breast cancer cell lines that represent the heterogeneity seen in breast tumors for drug screening. Fixed numbers of cells were plated in 96 well plates. Using a Biotek liquid handling robot, cells were treated with nine two-fold dilutions of an AKT inhibitor (GSK690693), a second drug (lapatinib), or a combination of the two. Response was measured using CTG assay as % Growth Inhibition. 50% Growth Inhibition (GI50) was calculated. Synergistic interactions between drugs was calculated by standard median-effect method using % inhibition (inhibitory concentration) readings and reported as a combination index using the Synergy module in R.

In assay [2] the test system is AU565. Kind of assay: Growth inhibition (CTG assay), AU565. The assay is classed as cell-based. To be noted: Homo sapiens, PIK3CA wt, PTEN wt, average GI50, CTG assay. The protocol:
as §1

The test system of assay [3] is MDAMB361. Description: Growth inhibition (CTG assay), MDAMB361. The assay is classed as cell-based. To be noted: Homo sapiens, MDA-MB-361, PIK3CA wt/p.E545K, average GI50, CTG assay. How it is done: as §1
Assay [4] concerns UACC812. Kind of assay: Growth inhibition (CTG assay), UACC812. The assay is classed as cell-based. The note with it: Homo sapiens, UACC-812, PIK3CA wt, PTEN wt, average GI50, CTG assay. How it is done:
as §1

For assay [5], the system named is MDAMB175. Description: Growth inhibition (CTG assay), MDAMB175. It counts as cell-based. The note with it: Homo sapiens, PIK3CA wt, PTEN wt, not HER2 amplified, average GI50, CTG assay. The protocol: as §1
For assay [6], the system named is BT474. Description: Growth inhibition (CTG assay), BT474. The assay is classed as cell-based. The note with it: Homo sapiens, BT-474, PIK3CA wt/p.K111N, average GI50, CTG assay. The protocol: as §1, with “50% Growth Inhibition (GI50) was calculated.” left out
Assay [7] concerns SKBR3. Kind of assay: Growth inhibition (CTG assay), SKBR3. It counts as cell-based. To be noted: Homo sapiens, SK-BR-3, PIK3CA wt, PTEN wt, average GI50, CTG assay. How it is done: as §1
In assay [8] the test system is SUM225. Description: Growth inhibition (CTG assay), SUM225. It counts as cell-based. The note with it: Homo sapiens, PIK3CA wt, average GI50, CTG assay. How it is done: as §1
In assay [9] the test system is HCC1569. Description: Growth inhibition (CTG assay), HCC1569. The assay is classed as cell-based. The note with it: Homo sapiens, PIK3CA wt, PTEN p.K267fs*9, average GI50, CTG assay. How it is done: as §1
Assay [10] deals with HCC1954. Description: Growth inhibition (CTG assay), HCC1954. The assay is classed as cell-based. To be noted: Homo sapiens, PIK3CA p.H1047R, average GI50, CTG assay. The protocol:
as §1

The subject of assay [11] is SUM190PT. Description: Growth inhibition (CTG assay), SUM190PT. It counts as cell-based. To be noted: Homo sapiens, PIK3CA p.H1047R, average GI50, CTG assay. The protocol:
as §1

For assay [12], the system named is MDAMB453. Description: Growth inhibition (CTG assay), MDAMB453. It counts as cell-based. The note with it: Homo sapiens, MDA-MB-453, PIK3CA p.H1047R, PTEN wt/p.E307K, average GI50, CTG assay. The protocol: as §1
The subject of assay [13] is Akt. The note with it: ATP-competitive; three Akt isoforms; cited from earlier work.

Usually GI50 stands for the concentration giving 50% growth inhibition. As to `CS(=O)(=O)CCNCc1ccc(-c2ccc3ncnc(Nc4ccc(OCc5cccc(F)c5)c(Cl)c4)c3c2)o1` [Lap, lapatinib], the 50% growth inhibitory concentration (GI50) in assay [1] stood at 68 nM; in [2] it was 87 nM; in [3] it was 106 nM; in assay [4] it was 106 nM; in assay [5], 114 nM; in [6] it was 116 nM. For the same compound, the GI50 in assay [7] came to 163 nM; in [8], 245 nM; in [9], 420 nM; in assay [10] it was 673 nM; in [11], 806 nM; in assay [12] it was 922 nM.
Take `CCn1c(-c2nonc2N)nc2c(C#CC(C)(C)O)ncc(OC[C@H]3CCCNC3)c21` [AKT]: the GI50 amounted to 15 nM in [1]; 109 nM in assay [2]; 63 nM in [3]; 41 nM in [4]; 27 nM in assay [5]; 89 nM in assay [6]. For the same compound, the GI50 in assay [7] is 54 nM; in assay [8], 293 nM; in assay [9], 122 nM; in assay [10] it was 119 nM; in [11], 229 nM; in [12], 109 nM. For the same compound, in assay [13], the “pan-Akt kinase inhibition potency” value is reported as “low-nanomolar”.
